What follows are compounds tested against T1, TrkB (Homo sapiens, UniProt Q16620) (assay: Trk B Fluorescence Polarization Kinase Assay). Conditions: 150 uM ATP, 50 nM TrkB; uncertainty ±10%.
T1 construct: purchased Upstate 14-507M
Type: biochemical
Protocol: The compounds of the present invention are also specific inhibitors of TrkB. Selection of preferred compounds of Formula I for use as TrkB inhibitors was performed in the following manner. The TrkB assay utilized the fluorescein-labeled phosphopeptide and the anti-phosphotyrosine antibody included in the Panvera Phospho-Tyrosine Kinase Kit (Green) supplied by Invitrogen. When TrkB phosphorylated poly Glu4Tyr, the fluorescein-labeled phosphopeptide was displaced from the anti-phosphotyrosine antibody by the phosphorylated poly Glu4Tyr, thus decreasing the FP value. The TrkB kinase reaction was incubated at room temperature for 30 minutes under the following conditions: 50 nM TrkB (Upstate, catalog #14-507M), 20 ug/mL poly Glu4Tyr, 150 uM ATP, 5 mM MgCl2, 1% compound in DMSO. The kinase reaction was stopped with the addition of EDTA. The fluorescein-labeled phosphopeptide and the anti-phosphotyrosine antibody were added and incubated for 30 minutes at room temperature. Data points were an average of triplicate samples. Inhibition and IC50 data analysis were done with GraphPad Prism using a non-linear regression fit with a multiparamater, sigmoidal dose-response (variable slope) equation.

T1 sequence (Q16620 526-822 limits assumed): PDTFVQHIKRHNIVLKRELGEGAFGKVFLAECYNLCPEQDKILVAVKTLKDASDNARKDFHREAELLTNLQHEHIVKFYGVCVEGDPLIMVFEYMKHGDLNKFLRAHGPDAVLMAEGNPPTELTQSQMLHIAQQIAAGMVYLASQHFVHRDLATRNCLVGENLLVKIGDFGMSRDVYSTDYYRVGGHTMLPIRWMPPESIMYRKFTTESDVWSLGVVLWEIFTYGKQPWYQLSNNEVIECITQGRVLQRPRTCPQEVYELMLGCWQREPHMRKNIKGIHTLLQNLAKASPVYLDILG

SMILES	IC50
COc1cc2ncnc(N3CCC(NC(=O)Nc4ccc(N5CCCC5)nc4)C3)c2cc1OC (centres unmarked) [Compound 46, 1-[1-(6,7-Dimethoxy-quinazolin-4-yl)-pyrrolidin-3-yl]-3-(6-pyrrolidin-1-yl-pyridin-3-yl)-urea]	24.8 µM
COc1cc2ncnc(N3CCC(NC(=O)Nc4ccc(N5CCCCC5)cc4)C3)c2cc1OC (centres unmarked) [Compound 47, 1-[1-(6,7-Dimethoxy-quinazolin-4-yl)-pyrrolidin-3-yl]-3-(4-piperidin-1-yl-phenyl)-urea]	12 µM
COc1cc2ncnc(N3CCC(NC(=O)Nc4ccc(Cl)cc4)C3)c2cc1OC (centres unmarked) [Compound 48, 1-(4-Chloro-phenyl)-3-[1-(6,7-dimethoxy-quinazolin-4-yl)-pyrrolidin-3-yl]-urea]	16 µM
COc1cc2ncnc(N3CCC(NC(=O)Nc4ccc(N5CCCC5)cc4)C3)c2cc1OC (centres unmarked) [Compound 49, 1-[1-(6,7-Dimethoxy-quinazolin-4-yl)-pyrrolidin-3-yl]-3-(4-pyrrolidin-1-yl-phenyl)-urea]	3.88 µM
COc1cc2ncnc(N3CCC(NC(=O)Nc4ccc(C5CCCCC5)cc4)C3)c2cc1OC (centres unmarked) [Compound 50, 1-(4-Cyclohexyl-phenyl)-3-[1-(6,7-dimethoxy-quinazolin-4-yl)-pyrrolidin-3-yl]-urea]	> 46 µM
COc1cc2ncnc(N3CCC(NC(=O)Nc4ccc(Oc5ccccc5)cc4)C3)c2cc1OC (centres unmarked) [Compound 51, 1-[1-(6,7-Dimethoxy-quinazolin-4-yl)-pyrrolidin-3-yl]-3-(4-phenoxy-phenyl)-urea]	2.74 µM
COc1cc2ncnc(N3CCC(NC(=O)Nc4ccc(N(C)C)cc4)C3)c2cc1OC (centres unmarked) [Compound 52, 1-[1-(6,7-Dimethoxy-quinazolin-4-yl)-pyrrolidin-3-yl]-3-(4-dimethylamino-phenyl)-urea]	22.7 µM
COc1cc2ncnc(N3CCC(NC(=O)Nc4ccc(OC5CCCC5)cc4)C3)c2cc1OC (centres unmarked) [Compound 53, 1-(4-Cyclopentyloxy-phenyl)-3-[1-(6,7-dimethoxy-quinazolin-4-yl)-pyrrolidin-3-yl]-urea]	4.07 µM
COc1cc2ncnc(N3CCC(OC(=O)Nc4ccc(OC5CCCC5)cc4)C3)c2cc1OC (centres unmarked) [Compound 54, (4-Cyclopentyloxy-phenyl)-carbamic acid 1-(6,7-dimethoxy-quinazolin-4-yl)-pyrrolidin-3-yl ester]	44.6 µM
COc1cc2ncnc(N3CCC(OC(=O)Nc4ccc(OC5CCCC5)cc4)CC3)c2cc1OC [Compound 55, (4-Cyclopentyloxy-phenyl)-carbamic acid 1-(6,7-dimethoxy-quinazolin-4-yl)-piperidin-4-yl ester]	> 46 µM
COc1cc2ncnc(N3CCC(COC(=O)Nc4ccc(OC5CCCC5)cc4)CC3)c2cc1OC [Compound 56, (4-Cyclopentyloxy-phenyl)-carbamic acid 1-(6,7-dimethoxy-quinazolin-4-yl)-piperidin-4-ylmethyl ester]	6.58 µM
